# Experimental data from patent US8309612B2, “Method for treating age-related macular degeneration” (Santen Pharmaceutical Co., Ltd., priority 2007, dated 2012).
# What was measured:
# [1] = tested on: ischemia-induced neovascularization in hindlimb tissues; conditions: hindlimb tissues of mice; cited from earlier work
# [2] = tested on: ARPE-19 cells; assay: Protective effect on HNE-induced cell damage in ARPE-19 cells; type: cell-based, human; conditions: for Cell protective effect on HNE-induced cell damage (in words): 12.5 μM, HNE 100 μM
# Excerpt: It is known that reactive oxygen species promote membrane lipid peroxidation, resulting in production of HNE (Exp. Eye. Res., 2006; 83: 165-175). HNE forms a covalent bond with a cysteine, lysine or histidine side chain of a protein and inhibits the normal function of the protein, and therefore has a high cytotoxic activity (Invest. Opthalmol. Vis. Sci. 2007; 48: 3469-3479). It is reported that an HNE-modified protein is present also in drusen beneath the retina which is considered to be a deposit inducing AMD, and it is considered to cause retinal pigment epithelial cell damage and also considered to be one of the causes of development or progression of a disease attributed to retinal pigment epithelial damage (Mol. Vis., 2005; 11: 1122-1134, Invest. Opthalmol. Vis. Sci., 2003; 44: 3663-3668, FEBS Lett., 2002; 528: 217-221). Therefore, by using ARPE-19 cells, the protective effect of Ebselen on HNE-induced cell damage was evaluated. In addition, the effects of quercetin and edaravone which are compounds generally known to have an antioxidative activity were also evaluated at the same time, and comparison study was performed.
# (§1) ARPE-19 cells were seeded in a 96-well plate at 5×10^3 cells/well and cultured for 24 hours under the conditions of 37° C. in a 5% CO2/95% air atmosphere. As a culture medium for ARPE-19, DMEM/F12 containing 10% fetal bovine serum, 2 mM L-glutamine and 100 U/mL penicillin and 100 μg/mL streptomycin was used. Subsequently, the culture medium was removed and exchanged with a culture medium containing Ebselen, quercetin or edaravone, or a vehicle culture medium. Incidentally, each compound was dissolved in DMSO and diluted to 1000-fold with the culture medium to prepare a culture medium containing each compound at 12.5 μM. The vehicle culture medium was prepared by diluting DMSO without containing the compound to 1000-fold with the culture medium. After the cells were cultured for 24 hours under the conditions of 37° C. in a 5% CO2/95% air atmosphere, the culture medium was removed and exchanged with a culture medium containing HNE (100 μM). After the cells were further cultured for 24 hours under the above-mentioned conditions, the cell viability was measured. In the measurement, Cell Counting Kit-8 (Dojin Kagaku) was used.
# (§2) The mean±the standard error (%) of the cell viability of each compound-treated group was expressed by taking the mean value of the cell viability of the untreated cells as 100%. The case number in each group is 4.
# [3] = tested on: choroidal neovascularization; assay: Rat model of krypton laser-induced choroidal neovascularization; type: in vivo; conditions: for Inhibition rate (%): BID, oral, 12 days, choroidal neovascularization incidence on day 7 after photocoagulation vs vehicle
# Experimental: The usefulness of Ebselen was evaluated using a rat model of laser-induced choroidal neovascularization.
# A rat was given general anesthesia by intramuscular administration of 1 ml/kg of a mixed solution of a 5% (w/v) ketamine hydrochloride injection solution and a 2% xylazine hydrochloride injection solution (7:1), and a 0.5% (w/v) tropicamide-0.5% phenylephrine hydrochloride ophthalmic solution was instilled into the eyes to cause mydriasis, and then, photocoagulation was performed with a krypton laser photocoagulation apparatus. The photocoagulation was performed in a posterior fundus at eight spots per eye sparsely by focusing on the retinal deep layer avoiding thick retinal blood vessels (coagulation conditions: spot size: 100 μm, output: 100 mW, coagulation time: 0.1 sec). After the photocoagulation, the ocular fundus was photographed, and the site where the laser was irradiated was confirmed. […]
# On day 7 after photocoagulation, each rat was given general anesthesia by intramuscular administration of 1 ml/kg of a mixed solution of a 5% (w/v) ketamine hydrochloride injection solution and a 2% xylazine hydrochloride injection solution (7:1), and a 0.5% (w/v) tropicamide-0.5% phenylephrine hydrochloride ophthalmic solution was instilled into the eyes to cause mydriasis, and then, 0.1 ml of a 10% fluorescein solution was injected into the tail vein, and fluorescence fundus photography was performed. In the fluorescence fundus photography, a spot where fluorescence leakage was not observed (absence of neovascularization) was judged as negative, and a spot where fluorescence leakage was observed was judged as positive. When there are two photocoagulation sites where a little fluorescence leakage was observed, they were judged as positive (presence of neovascularization). The choroidal neovascularization incidence rate (%) was calculated from the number of positive spots relative to the eight laser irradiation spots in accordance with Equation 1, and the inhibition rate (%) of the drug to be evaluated was calculated in accordance with Equation 2. […]
# [4] = tested on: carotid artery remodeling and neovascularization; conditions: p22phox transgenic mice; cited from earlier work
# [5] = tested on: renal neovascularization; conditions: ZDF rats, repeated administration; cited from earlier work
# [6] = tested on: ARPE-19 cells (a human retinal pigment epithelial cell line); assay: Protective effect on hydrogen peroxide-induced cell damage in ARPE-19 cells; type: cell-based; conditions: for Cell protective effect on hydrogen peroxide-induced cell damage (in words): 6.25 μM or 12.5 μM, hydrogen peroxide 250 μM
# Experimental: Oxidative stress causes retinal pigment epithelial dysfunction and is considered to be one of the causes of development or progression of AMD (Proc. Natl. Acad. Sci. USA, 2006; 103: 11282-11287). Therefore, by using ARPE-19 cells (a human retinal pigment epithelial cell line), the protective effect of Ebselen on hydrogen peroxide-induced cell damage was evaluated. In addition, the effects of quercetin and edaravone which are compounds generally known to have an antioxidative activity were also evaluated at the same time, and comparison study was performed.
# as §1, with “compound at 6.25 μM or 12.5 μM.” for “compound at 12.5 μM.”, “medium containing hydrogen peroxide (250 μM). After” for “medium containing HNE (100 μM). After”
# as §2
SMILES,Effect on ischemia-induced neovascularization (in words) [1],Cell protective effect on HNE-induced cell damage (in words) [2],Inhibition rate (%) ([3]; each dose: 5 mg/kg),Inhibition rate (%) ([3]; each dose: 15 mg/kg),"Effect on choroidal neovascularization (in words) ([3]; rat models of laser-induced choroidal neovascularization, 5 or 15 mg/kg BID oral)",Effect on carotid artery remodeling and neovascularization (in words) [4],Effect on renal neovascularization (in words) [5],Cell protective effect on hydrogen peroxide-induced cell damage (in words) [6],"viability at 12.5 µM ([2]; Homo sapiens, ARPE-19, compound 12.5 μM, 24 h pretreatment, then HNE 100 μM 24 h, untreated cells = 100%, mean ± standard error)","viability at 6.25 µM ([6]; Homo sapiens, ARPE-19, compound 6.25 μM, 24 h pretreatment, then hydrogen peroxide 250 μM 24 h, untreated cells = 100%, mean ± standard error)","viability at 12.5 µM ([6]; Homo sapiens, ARPE-19, compound 12.5 μM, 24 h pretreatment, then hydrogen peroxide 250 μM 24 h, untreated cells = 100%, mean ± standard error)"
"O=c1c2ccccc2[se]n1-c1ccccc1 [Ebselen, 2-phenyl-1,2-benzisoselenazol-3(2H)-one]",inhibited ischemia-induced neovascularization,strongly protected the cells against HNE-induced cell damage,26.9%,28.9%,inhibits choroidal neovascularization,inhibited endogenous hydrogen peroxide-induced carotid artery remodeling and neovascularization,renal neovascularization was restored,strongly protected the cells against hydrogen peroxide-induced cell damage in a concentration-dependent manner,–,–,–
"CC1=NN(c2ccccc2)C(=O)C1 [Edaravone, edaravone]",–,not found to have a cell protective effect,–,–,–,–,–,not found to have a cell protective effect at either concentration,–,–,–
"O=c1c(O)c(-c2ccc(O)c(O)c2)oc2cc(O)cc(O)c12 [Quercetin, quercetin]",–,not found to have a cell protective effect,–,–,–,–,–,not found to have a cell protective effect at either concentration,28.6 ± 0.9%,8 ± 0.1%,3.8 ± 0.4%
